How the values were obtained:
[1] = tested on: HCT-116 cells; assay: Cell cycle analysis by flow cytometry; type: cell-based, human; details: IC50 concentration, 24 h
Source text: The exposure of the cells to 4112 led to a significant increase in the proportion of cells in pre-G1 phase (Up to 9-fold compared to the control). Accumulation of cells in pre-G1 phase, likely as a result of degradation or fragmentation of genetic material indicates a possible role for apoptosis through compound-induced growth inhibition.
The cells were collected by trypsinization, washed with phosphate buffered saline (PBS) and fixed in ice-cold absolute alcohol. Thereafter, cells were stained using Cycletest™ Plus DNA Reagent Kit (BD Biosciences, San Jose, Calif.) according to the manufacturer's instructions. Cell cycle distribution was determined using a FACS Calibur flow cytometer (BD Biosciences, San Jose, Calif.).

[2] = tested on: baby hamster kidney (BHK) cell lines; assay: Cytotoxicity against normal baby hamster kidney cells; type: cell-based; details: 72 h
Method: FIG. 3B is a graph illustrating the cytotoxic effect of 4112 against human colon adenocarcinoma cancer cells (HCT-116, Caco-2 and HT-29) vs. normal baby hamster kidney cells (BHK). All cells were exposed to different concentrations of 4112 for 72 h. The cell viability concentration curves were plotted, and the IC50 were determined. *denotes significance at P<0.001;
Based on the favorable pharmacologic and physicochemical properties of MOS-1512, it was selected as a new lead for the second subset of compounds (MOS-1812 to MOS-5112). The compounds in this series contained variable groups at R^1 and R^2 that were all tested against the three cancer cell lines (HCT-116, Caco-2 and HT-29). […]
The sulforhodamine B (SRB) assays were performed according to Skehan, P.; Storeng, R.; Scudiero, D.; Monks, A.; McMahon, J.; Vistica, D.; Warren, J. T.; Bokesch, H.; Kenney, S.; Boyd, M. R., New colorimetric cytotoxicity assay for anticancer-drug screening. […] Briefly, exponentially growing cells were trypsinized, counted and seeded at the appropriate densities (5000 cells/100 μL/well) into 96-well microtiter plates. […] The protein-bound dye was dissolved in 10 mM Tris base solution for (optical density) OD determination at 510 nm using a SpectraMax plus Microplate Reader (Molecular Devices, CA). […]

[3] = tested on: HT-29 colon cancer cell spheroids (cancer stem cells); assay: Primary (1°) colonosphere formation assay; type: cell-based, human
Method: Compound 4112 and another potent compound 3712 were also evaluated for their ability to inhibit cancer stem cell proliferation using a primary (1°) colonosphere formation assay. In this assay, HT-29 colon cancer cells were grown in low adhesion plates to form spheres as previously described. See Patel, N. J.; Karuturi, R.; Al-Horani, R. A.; Baranwal, S.; Patel, J.; Desai, U. R.; Patel, B. B., Synthetic, non-saccharide, glycosaminoglycan mimetics selectively target colon cancer stem cells. ACS Chem Biol 2014, 9 (8), 1826-33, incorporated herein by reference in its entirety. Wells treated with the inventive compounds were compared to vehicle treated cells for primary sphere growth inhibition after 5 days of incubation. […] Of note, monolayer growth conditions are ideally suited for examining cellular proliferation, whereas spheroid growth conditions examine cancer stem cell growth and self-renewal properties.
For primary sphere formation, cells were plated in nontreated, low adhesion, 96 wells plate at the concentration of 100 cells/100 μL/well in stem cell media (SCM) that consisted of DMEM:F12:AA (Gibco), supplemented with 1×B27 (Gibco), 20 ng/mL epidermal growth factor, and 10 ng/mL fibroblast growth factor (Sigma). After 4 h of incubation, vehicle (control) or 3712 and 4112 at the desired concentrations were added to each well (at least in triplicates for each sample). On day five, numbers of spheres ranging from […] in diameter were counted using phase contrast microscope and percent inhibition was calculated compared to control.

## CCCNC(=O)/C(=C/c1c[nH]c2ccccc12)NC(=O)/C=C/c1cccs1 [Compound 4112, (Z)-3-(1H-indol-3-yl)-N-propyl-2-[(E)-3-(thien-2-yl)acrylamidolacry]amide]
[1]
  increase in proportion of cells in pre-G1 phase compared to the control: Up to 9 fold
[2]
  IC50: 77.6 ± 6.2 µM
[3]; HT-29 spheres, 5 days of incubation
  IC50: 18.9 ± 1.1 µM
[3]; spheroids >50 μm, 5 days
  inhibition of colon cancer spheroids formation: dose-dependent inhibition
